From patent US20090197917A1, “USE OF RIMONABANT FOR THE PREPARATION OF MEDICAMENTS USEFUL IN THE PREVENTION AND TREATMENT OF TYPE 2 DIABETES” (SANOFI-AVENTIS, priority 2005, published 2009)

What was measured:
[1] = system: obese subjects with type 2 diabetes; test: Rio-Diabetes clinical study, 12 months, rimonabant 20 mg versus placebo; type: in vivo, human
Method: The Rio-Diabetes clinical study, carried out over 12 months in 1045 obese subjects with type 2 diabetes treated by monotherapy (metformin or sulfonylureas) compares the effect of rimonabant at the dose of 20 mg versus a placebo product in weight reduction; the improvement of glycosylated haemoglobin (HbAlc), of glycemia, of insulinaemia and lipid parameters. A low-calorie diet (deficit of 600 Kcal/day) is prescribed for all the patients and is introduced 4 weeks before the start of the treatment period.
The insulin resistance is evaluated by the HOMA (Homeostasis Model Assessment) test described by Matthew D. R. et al. in Diabetologica, 1985, 28, 412-419.

fa/fa obese Zucker rats = test: Long-term (12 months) treatment of obese Zucker rats: protection of the pancreas; type: in vivo, rat
From the text: The effect of a long-term (12 months) treatment with rimonabant was studied in Zucker rats with established obesity.
The fa/fa strain of obese Zucker rats is characterized by hyperphagia, obesity, dyslipidaemia and type 2 diabetes.
After 12 months, the fa/fa obese Zucker rats treated with the vehicle show a marked hypertrophy of the pancreas (+38%, p<0.05).

[2] = logistic regression analysis with weight as co-variable
[3] = rimonabant 20 mg, 12 months, p<0.001

For Cc1c(C(=O)NN2CCCCC2)nn(-c2ccc(Cl)cc2Cl)c1-c1ccc(Cl)cc1 [rimonabant, N-piperidino-5-(4-chlorophenyl)-1-(2,4-dichlorophenyl)-4-methylpyrazole-3-carboxamide], the “effect independent of the weight loss for the improvement in HDL-c” value [1, 2] was “about 55%”, the “effect independent of the weight loss for the improvement in HbAlc” value [1, 2] was “about 55%” and the “effect independent of the weight loss for the triglycerides” value [1, 2] was “about 35%”. For the same compound, the “time after which the loss of weight appears stabilized” value ([1]; rimonabant 20 mg) was 6 months, the “decrease in glycemia on an empty stomach” value ([1]; rimonabant 20 mg group, 12 months, p<0.001 vs placebo) was 0.64 ± 1.96 mmol/L and the “improvement in insulin resistance evaluated by the HOMA test” value ([1]; rimonabant 20 mg, 12 months) was −0.5±5.7%. The “decrease of triglycerides compared with the placebo group” value [1, 3] was “more than 16.4±3.3%”, the “difference in the reduction of the level of HbAlc compared with the placebo” value [1, 3] was 0.7±0.1% and the “greater weight loss than that observed in the placebo group” value [1, 3] was 4.2 ± 0.4 kg. For the same compound, the “increase in the HDL-c level compared with the placebo” value [1, 3] was “greater than 8.4±1.2%”, the “reduction of insulinaemia on an empty stomach” value ([1]; rimonabant 20 mg, 12 months, p=0.247 vs placebo) was 0.7±9.9 μIU/mL and the “reduction in the systolic blood pressure” value ([1]; rimonabant 20 mg, p=0.020) was 0.8±12.8 mmHg. The “reduction in the diastolic blood pressure” value ([1]; rimonabant 20 mg, p=0.060) was 1.9±8.2 mmHg, the “time at which the reduction of HbAlc is maximum” value ([1]; rimonabant 20 mg, then maintained up to 12 months) was 9 months and the “HbAlc difference compared with the placebo” value ([1]; rimonabant combined with a sulfonylurea, p<0.001) was 0.7±0.1%. For the same compound, the “HbAlc difference compared with the placebo” value ([1]; rimonabant combined with metformin, p<0.001) was 0.7±0.1%, the “difference in weight loss compared with the placebo group” value ([1]; rimonabant-metformin combination, p<0.001) was 4.3 ± 0.4 kg and the “difference in weight loss compared with the placebo group” value ([1]; rimonabant-sulfonylurea combination, p<0.001) was 3.1 ± 0.5 kg. For the same compound, the “hypertrophy of the pancreas” value (fa/fa obese Zucker rats; 3 mg/kg/day, vehicle +38%) was “+17%” and the “hypertrophy of the pancreas” value (fa/fa obese Zucker rats; 10 mg/kg/day, p<0.05, vehicle +38%) was “+1%”.
